Measurements taken from US20060121085A1, “Formulations for cell-schedule dependent anticancer agents” (priority 2003, published 2006).
Where two headings read alike, the source gives them in different places.

Experiments:
[1] = system: subcutaneous Hey (Human Ovarian Cancer) tumors; details: 100 mg/kg FUDR/Saline × 2 (1 & 14 days), i.p., 20 μL
Procedure: In this study, SCID mice bearing established (˜0.5 cm diameter) SC ovarian (Hey) tumors were used in this study and were randomized to equalize the tumor volume prior to initiation of drug therapy. Doses of 50 and 100 mg/kg were administered intratumorally. Floxuridine in saline at 100 mg/kg was administered by intraperitoneal injection. ATRIGEL® alone was administered in a volume equal to the 100 mg/kg group.
Mice were injected with 10×10^6 Hey (Human Ovarian Cancer) cells. When the average tumor diameter was approximately 0.5 cm, mice were divided into treatment groups such that the mean tumor volume in each group was equivalent and drug was administered. […] The volume of Floxuridine/polymer used was calculated assuming total release of drug from the polymer and a drug concentration of 0.10 mg/μL of polymer. […]
• All SCID mice used for this study were screened for IgG production and those mice producing IgG (“leaky”) were eliminated from the study group. • Mice were injected with 10×10^6 Hey cells. • When tumors achieved approximately 0.5 cm diameter, drug treatments were initiated. […] All treatments consisted of two injections (Days 1 and 14). • Mice were monitored weekly for weight, tumor size and toxicity symptoms (survival, general health, fur condition, etc.) for at least 5 weeks and the efficacy was compared

[2] = Rat; cited from earlier work
[3] = Mouse; cited from earlier work
[4] = mouse at 2.5 and 100 mg/kg (cleft palate, skeletal defects, limb deformities); cited from earlier work
[5] = Dog; cited from earlier work
[6] = Rabbit; cited from earlier work
[7] = cited from earlier work
[8] = cited from earlier work; remark: listed apart in the source
mouse embryo fibroblasts = details: cited from earlier work

## O=c1[nH]c(=O)n([C@H]2C[C@H](O)[C@@H](CO)O2)cc1F [FUDR, 5-fluorodeoxyuridine]
[1]
  Mortality (%): 0%
[1]; listed as free Floxuridine
  Mortality (%): all surviving
[2]
  Lethal Intravenous Doses: 670 +/− 73
[3]
  Lethal Intravenous Doses: 880 +/− 51
[4]
  Teratogenicity: Teratogenic
[5]
  Lethal Intravenous Doses: 157 +/− 46
[6]
  Lethal Intravenous Doses: 94 +/− 19.6
[7]; 50 mg/kg/day × 5 days
  MTD, cumulative dose: 250 mg/kg
[7]; normal (immunocompetent) mice, intraperitoneal injection, × 5 days
  maximum tolerated dose (MTD): 50 mg/kg/day
[8]; female rats at 25 or 50 mg/kg
  Reproductive Toxicant, female: reproductive toxicity
[8]; rat at 75 and 150 mg/kg (cleft palate, skeletal defects, limb deformities)
  Teratogenicity: Teratogenic
[8]; rats at 125-250 mg/kg i.p.
  Reproductive Toxicant, male: spermato-toxic
Mouse embryo fibroblasts
  Mutagenicity: Mutagenic
